The record followed here is ChEMBL document CHEMBL1759997, “Discovery of a piperazine urea based compound as a potent, selective, orally bioavailable melanocortin subtype-4 receptor partial agonist” (Bioorg Med Chem Lett, 2011).

The target in data set [1] is T1, Melanocyte-stimulating hormone receptor (Homo sapiens, UniProt Q01726). The data set can be described thus: Displacement of [125I]NDP-alpha-MSH from human MC1 receptor expressed in CHO cells. The data set is classed as cell-based.
Target sequence in this assay (Q01726 whole entry): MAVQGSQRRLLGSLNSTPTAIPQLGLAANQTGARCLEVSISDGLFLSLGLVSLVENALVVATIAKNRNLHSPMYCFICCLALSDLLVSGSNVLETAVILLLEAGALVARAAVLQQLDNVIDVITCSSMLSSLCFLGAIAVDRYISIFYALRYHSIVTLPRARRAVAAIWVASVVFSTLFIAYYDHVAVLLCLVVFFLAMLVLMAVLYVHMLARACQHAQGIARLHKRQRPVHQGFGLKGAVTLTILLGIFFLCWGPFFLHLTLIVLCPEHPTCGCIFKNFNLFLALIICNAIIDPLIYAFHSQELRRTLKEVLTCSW
In data set [2] the target is T2, Melanocortin receptor 3 (Homo sapiens, UniProt P41968). Description: Displacement of [125I]NDP-alpha-MSH from human MC3 receptor expressed in CHO cells. The data set is classed as cell-based.
T2 sequence (P41968 whole entry): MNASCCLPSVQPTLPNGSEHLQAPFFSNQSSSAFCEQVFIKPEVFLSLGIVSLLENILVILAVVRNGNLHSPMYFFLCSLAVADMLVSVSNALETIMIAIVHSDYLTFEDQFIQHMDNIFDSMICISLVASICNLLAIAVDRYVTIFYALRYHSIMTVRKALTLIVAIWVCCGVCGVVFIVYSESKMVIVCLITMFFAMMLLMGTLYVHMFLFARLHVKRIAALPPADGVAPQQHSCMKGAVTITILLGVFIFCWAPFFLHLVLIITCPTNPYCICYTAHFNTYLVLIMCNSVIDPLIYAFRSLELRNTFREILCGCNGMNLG
For data set [3], the target named is T3, Melanocortin receptor 4 (Homo sapiens, UniProt P32245). Description: Displacement of [125I]NDP-alpha-MSH from human MC4 receptor expressed in CHO cells. The data set is classed as cell-based.
T3 sequence (P32245 whole entry): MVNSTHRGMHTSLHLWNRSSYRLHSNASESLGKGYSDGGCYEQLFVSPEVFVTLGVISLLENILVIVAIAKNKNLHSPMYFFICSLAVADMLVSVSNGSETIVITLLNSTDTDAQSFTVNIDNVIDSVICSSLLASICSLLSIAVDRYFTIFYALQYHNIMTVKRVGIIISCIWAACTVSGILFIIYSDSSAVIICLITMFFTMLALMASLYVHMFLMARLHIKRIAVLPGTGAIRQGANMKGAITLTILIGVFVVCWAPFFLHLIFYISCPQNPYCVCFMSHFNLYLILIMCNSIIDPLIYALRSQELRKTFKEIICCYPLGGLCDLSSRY
In data set [4] the target is T4, Melanocortin receptor 5 (Homo sapiens, UniProt P33032). The data set can be described thus: Displacement of [125I]NDP-alpha-MSH from human MC5 receptor expressed in CHO cells. The data set is classed as cell-based.
T4 sequence (P33032 whole entry): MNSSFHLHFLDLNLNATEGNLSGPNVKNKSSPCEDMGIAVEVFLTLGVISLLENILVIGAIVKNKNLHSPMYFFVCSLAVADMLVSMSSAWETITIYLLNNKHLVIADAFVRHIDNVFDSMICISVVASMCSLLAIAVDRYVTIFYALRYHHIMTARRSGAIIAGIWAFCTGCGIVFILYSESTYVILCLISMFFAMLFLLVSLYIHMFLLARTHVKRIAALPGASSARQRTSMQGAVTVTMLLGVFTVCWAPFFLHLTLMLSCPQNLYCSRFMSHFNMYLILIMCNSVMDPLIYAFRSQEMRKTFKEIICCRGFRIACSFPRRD
In data set [5] the target is T1, Melanocyte-stimulating hormone receptor. The data set can be described thus: Agonist activity at human MC1 receptor expressed in CHO cells assessed as cAMP accumulation. The data set is classed as functional, cell-based.
Target sequence in this assay (Q01726 whole entry): as the sequence (Q01726 whole entry) above
For data set [6], the target named is T3, Melanocortin receptor 4. Description: Agonist activity at human MC4 receptor expressed in CHO cells assessed as cAMP accumulation. The data set is classed as functional, cell-based.
The target in data set [7] is T4, Melanocortin receptor 5. The data set can be described thus: Agonist activity at human MC5 receptor expressed in CHO cells assessed as cAMP accumulation. Type of data set: functional, cell-based.
Data set [8] deals with T1, Melanocyte-stimulating hormone receptor. Description: Agonist activity at human MC1 receptor expressed in CHO cells assessed as cAMP accumulation at 10 uM relative to alpha-MSH. Type of data set: functional, cell-based.
Target sequence in this assay (Q01726 whole entry, looked up): as the sequence (Q01726 whole entry) above
Data set [9] has as its target T2, Melanocortin receptor 3. Description: Agonist activity at human MC3 receptor expressed in CHO cells assessed as cAMP accumulation at 10 uM relative to alpha-MSH. Type of data set: functional, cell-based.
The target of data set [10] is T3, Melanocortin receptor 4. The data set can be described thus: Agonist activity at human MC4 receptor expressed in CHO cells assessed as cAMP accumulation at 10 uM relative to alpha-MSH. The data set is classed as functional, cell-based.
Data set [11] addresses T4, Melanocortin receptor 5. Description: Agonist activity at human MC5 receptor expressed in CHO cells assessed as cAMP accumulation at 10 uM relative to alpha-MSH. Type of data set: functional, cell-based.
A short description of data set [12]: Oral bioavailability in Sprague-Dawley rat at 1 mg/kg and 4 mg/kg. The data set is classed as ADME, organism-based. The conditions noted are these: in vivo.
Data set [13] can be described thus: Clearance in Sprague-Dawley rat at 1 mg/kg, iv and 4 mg/kg, po. Type of data set: ADME, organism-based. The conditions noted are these: in vivo.
Data set [14] can be described thus: Volume of distribution in Sprague-Dawley rat at 1 mg/kg, iv and 4 mg/kg, po. The data set is classed as ADME, organism-based. The conditions noted are these: in vivo, read-out: Vdss.
Data set [15] is described as follows: Half life in Sprague-Dawley rat at 1 mg/kg, iv and 4 mg/kg, po. The data set is classed as ADME, organism-based. The conditions noted are these: in vivo.
Data set [16] concerns Rattus norvegicus. The data set can be described thus: Antiobesity activity in diet-induced obesity rat model assessed as reduction in body weight at 10 mg/kg, po BID for 14 days relative to control. Type of data set: functional, organism-based. Set-up: dose 10 mg/kg.
Data set [17] concerns Mus musculus. The data set can be described thus: Increase in erectile activity in CN-stimulated mouse at 10 mg/kg, iv. The data set is classed as functional, organism-based. Set-up: dose 10 mg/kg.
Data set [18] concerns Mus musculus. Description: Increase in erectile activity in CN-stimulated mouse at 0.3 mg/kg, iv. Type of data set: functional, organism-based. Set-up: dose 0.3 mg/kg.
Data set [19] in a line: Plasma concentration in rat at 0.3 mg/kg, iv after 15 mins. Type of data set: ADME, organism-based. Set-up: dose 0.3 mg/kg, route intravenous.
The nature of data set [20]: Oral bioavailability in Beagle dog at 1 mg/kg. The conditions noted are these: in vivo. Type of data set: ADME, organism-based, Canis lupus familiaris.
Data set [21] in a line: Clearance in Beagle dog at 1 mg/kg, po. Set-up: dose 1 mg/kg, route oral. The conditions noted are these: in vivo. The data set is classed as ADME, organism-based, Canis lupus familiaris.
Data set [22] concerns Canis familiaris. The data set can be described thus: Volume of distribution in Beagle dog at 1 mg/kg, po. The conditions noted are these: in vivo. The data set is classed as ADME, organism-based, Canis lupus familiaris. Set-up: dose 1 mg/kg, route oral.
Data set [23] can be described thus: Half life in Beagle dog at 1 mg/kg, po. Type of data set: ADME, organism-based, Canis lupus familiaris. Set-up: dose 1 mg/kg, route oral. The conditions noted are these: in vivo.
A short description of data set [24]: Oral bioavailability in rhesus monkey at 1 mg/kg. The data set is classed as ADME, organism-based, Macaca mulatta. The note with it: in vivo.
Data set [25] can be described thus: Clearance in rhesus monkey at 1 mg/kg, po. Set-up: dose 1 mg/kg, route oral. Type of data set: ADME, organism-based, Macaca mulatta. The note with it: in vivo.
Data set [26] deals with Rhesus monkey. Description: Volume of distribution in rhesus monkey at 1 mg/kg, po. Type of data set: ADME, organism-based, Macaca mulatta. Set-up: dose 1 mg/kg, route oral. The note with it: in vivo.
A short description of data set [27]: Half life in rhesus monkey at 1 mg/kg, po. Type of data set: ADME, organism-based, Macaca mulatta. Set-up: dose 1 mg/kg, route oral. The conditions noted are these: in vivo.
Data set [28] has as its system Mus musculus. Description: Antiobesity activity in wild type mouse assessed as reduction in food intake at 20 mg/kg after 4 hrs post dosing relative to control. The data set is classed as functional. Set-up: scale not given: the % may be the effect or the level left.
Data set [29] has as its system Mus musculus. Description: Antiobesity activity in MC3R/MC4R knockout mouse assessed as reduction in food intake at 20 mg/kg after 4 hrs post dosing relative to control. Type of data set: functional, organism-based. Set-up: dose 20 mg/kg.
Data set [30] deals with Rattus norvegicus. Description: Antiobesity activity in diet-induced obesity rat model assessed as reduction in body weight at 5 mg/kg, po BID for 14 days relative to control. The data set is classed as functional, organism-based. Set-up: dose 5 mg/kg.
Data set [31] relates to Rattus norvegicus. Description: Antiobesity activity in diet-induced obesity rat model assessed as reduction in body weight at 20 mg/kg, po BID for 14 days relative to control. The data set is classed as functional, organism-based. Set-up: dose 20 mg/kg.
Data set [32] can be described thus: Plasma concentration in rat at 10 mg/kg, iv after 15 mins. The data set is classed as ADME, organism-based. Set-up: dose 10 mg/kg, route intravenous.
The subject of data set [33] is Mus musculus. The data set can be described thus: Antiobesity activity in diet-induced obesity mouse model assessed as reduction in food intake at 20 mg/kg after 4 hrs post dosing relative to control. The data set is classed as functional, organism-based. Set-up: dose 20 mg/kg.
Data set [34] has as its target Voltage-gated inwardly rectifying potassium channel KCNH2 (Homo sapiens, UniProt Q12809). The data set can be described thus: Inhibition of human ERG.
Data set [35] in a line: Binding affinity to calcium channel.
Data set [36] in a line: Binding affinity to sodium channel.

Activity calls are given as the source filed them. The calls are words filed in the database; no cut-off is given here.

Chain of Voltage-gated inwardly rectifying potassium channel KCNH2 (Q12809 whole entry): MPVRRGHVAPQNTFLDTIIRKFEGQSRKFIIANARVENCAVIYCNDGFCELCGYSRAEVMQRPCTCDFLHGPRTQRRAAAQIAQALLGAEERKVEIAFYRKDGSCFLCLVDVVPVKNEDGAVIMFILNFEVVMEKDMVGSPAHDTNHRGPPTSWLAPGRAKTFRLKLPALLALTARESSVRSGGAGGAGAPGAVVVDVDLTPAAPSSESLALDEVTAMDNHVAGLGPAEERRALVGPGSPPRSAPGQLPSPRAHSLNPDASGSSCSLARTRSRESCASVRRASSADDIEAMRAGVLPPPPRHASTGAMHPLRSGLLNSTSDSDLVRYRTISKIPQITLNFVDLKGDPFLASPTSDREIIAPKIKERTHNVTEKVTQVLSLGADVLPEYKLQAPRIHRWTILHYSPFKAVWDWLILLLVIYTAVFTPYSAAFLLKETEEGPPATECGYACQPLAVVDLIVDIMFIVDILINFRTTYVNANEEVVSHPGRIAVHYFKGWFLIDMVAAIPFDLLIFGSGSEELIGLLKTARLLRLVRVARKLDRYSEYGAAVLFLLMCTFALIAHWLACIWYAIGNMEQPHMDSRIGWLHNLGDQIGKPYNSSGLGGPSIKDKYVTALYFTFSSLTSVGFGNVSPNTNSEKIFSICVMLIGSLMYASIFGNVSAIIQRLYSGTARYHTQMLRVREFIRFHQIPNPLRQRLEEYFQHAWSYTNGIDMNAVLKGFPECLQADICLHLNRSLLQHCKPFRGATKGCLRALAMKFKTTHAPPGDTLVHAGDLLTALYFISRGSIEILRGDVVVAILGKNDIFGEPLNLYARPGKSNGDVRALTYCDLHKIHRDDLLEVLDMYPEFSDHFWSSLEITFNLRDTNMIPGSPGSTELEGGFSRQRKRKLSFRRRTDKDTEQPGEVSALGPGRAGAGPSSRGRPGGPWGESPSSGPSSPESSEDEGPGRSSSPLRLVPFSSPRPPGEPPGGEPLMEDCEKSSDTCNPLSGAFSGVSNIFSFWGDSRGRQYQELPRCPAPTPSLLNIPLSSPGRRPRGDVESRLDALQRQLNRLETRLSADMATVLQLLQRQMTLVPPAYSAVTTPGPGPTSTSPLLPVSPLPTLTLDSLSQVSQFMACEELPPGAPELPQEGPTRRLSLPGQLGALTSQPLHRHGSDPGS

Consider `C[C@@H]1CN(C(=O)N[C@H](Cc2ccc(F)cc2)C(=O)N2CCC(C(=O)NC(C)(C)C)(C3CCCCC3)CC2)C[C@@H](C)N1`, for which the IC50 in data set [1] worked out at 2.1 µM; in [2], 0.97 µM; in data set [3] it was 0.011 µM; in [4], 1.4 µM. The results for the EC50 in [5], in data set [6] and in data set [7] were 0.26 µM, 0.018 µM and 1 µM, respectively. In addition, the Activity is 39% in [8], 2.8% in data set [9], 66% in [10] and 31% in data set [11]. In addition, in data set [12], the bioavailability stood at 1.9%. In [13], the clearance was determined as 43 mL/min/kg. In addition, the Vd in data set [14] was 9.2 L/kg. In addition, the half-life in data set [15] is 4.2 h.

On to `C[C@@H]1CN(C(=O)N[C@H](Cc2ccc(F)cc2)C(=O)N2CCC(C(=O)NC(C)(C)C)(C3CCCCC3)CC2)C[C@H](C)N1C`, for which the IC50 in data set [1] was 7.8 µM; in [2] it was 0.76 µM; in [3], 0.016 µM; in data set [4] it was 1.4 µM. For the same compound, the figures for the EC50 in data set [5] and in data set [6] were 0.91 µM and 0.06 µM, respectively. In addition, the Activity in data set [8] amounted to 14%; in data set [9], 0.6%; in data set [10], 21%; in [11], 14%.

Take `CC[C@H](NC(C)=O)c1cc(Cl)ccc1C1CCN(C(=O)[C@@H]2CN(C(C)(C)C)C[C@H]2c2ccc(F)cc2F)CC1`: the outcome in data set [16], in data set [17] and in data set [18] was Active. For the same compound, in data set [19], the concentration at 0.25 h is 47 nM.

In the case of `C[C@@H]1CN(C(=O)N[C@H](Cc2ccc(Cl)cc2)C(=O)N2CCC(C(=O)NC(C)(C)C)(C3CCCCC3)CC2)C[C@H](C)N1`, the IC50 in data set [1] is 1.5 µM; in data set [2], 0.033 µM; in [3], 0.00078 µM; in data set [4], 0.054 µM. The EC50 in [5] was found to be 0.28 µM; in data set [7] it was 0.21 µM. The Activity came to 24% in data set [8], 1.3% in data set [9], 15% in data set [10] and 26% in data set [11].

Turning to `CC[C@@H]1CN(C(=O)N[C@H](Cc2ccc(F)cc2)C(=O)N2CCC(C(=O)NC(C)(C)C)(C3CCCCC3)CC2)C[C@H](CC)N1`, the IC50 in [1] turned out to be 2.1 µM; in data set [2] it was 0.23 µM; in data set [3], 0.0047 µM; in [4], 0.43 µM. The values for the EC50 in data set [5] and in data set [6] were 0.42 µM and 0.013 µM, respectively. Besides, the Activity was 24% in data set [8], 1.2% in data set [9], 41% in [10] and 14% in [11]. Besides, in data set [12], the bioavailability came out at 46%. Moreover, the clearance in data set [13] was found to be 36 mL/min/kg. The Vd in [14] was 4.7 L/kg. This compound also gave a half-life in data set [15] of 1.7 h.

As to `C[C@H]1CN(C(=O)N[C@H](Cc2ccc(F)cc2)C(=O)N2CCC(C(=O)NC(C)(C)C)(C3CCCCC3)CC2)C[C@H](C)N1`, the IC50 was 3.3 µM in [1], 0.74 µM in [2], 0.012 µM in [3] and 1.4 µM in data set [4]. In addition, the EC50 in data set [5] turned out to be 0.25 µM; in [6], 0.058 µM; in data set [7], 1.4 µM. Further, the Activity was 46% in data set [8], 2% in data set [9], 58% in data set [10] and 30% in data set [11].

Consider `C[C@@H]1CN(C(=O)N[C@H](Cc2ccc(F)cc2)C(=O)N2CCC(C(=O)NC(C)(C)C)(C3CCCCC3)CC2)C[C@H](C)N1`, for which the IC50 is 5.1 µM in [1], 0.65 µM in data set [2], 0.0049 µM in data set [3] and 0.85 µM in data set [4]. Further, the figures for the EC50 in [6] and in data set [7] were 0.022 µM and > 3 µM, respectively. The Activity in data set [8] was found to be 30%; in data set [9], 3.6%; in data set [10], 59%; in data set [11], 22%; in data set [28], 37%; in [35], 9.6 µM. In data set [36], this compound gave an Activity of 6.8 µM. For the same compound, the bioavailability in data set [12] amounted to 28%; in data set [20] it was 118%; in data set [24] it was 20%. The same compound gave a clearance in data set [13] of 35 mL/min/kg. Moreover, in data set [14], the Vd was 4.7 L/kg. Also, the half-life in data set [15] is 2 h; in data set [23], 5.1 h; in [27] it was 5.3 h. In addition, the results for the CL/F in data set [21] and in data set [25] were 5.4 mL/min/kg and 5.2 mL/min/kg, respectively. Moreover, the figures for the Vdss in data set [22] and in [26] were 1.8 L/kg and 1 L/kg, respectively. Besides, the outcome in data set [29] and in [17] was inactive. Besides, the result in data set [30], in data set [16], in data set [31] and in data set [33] was Active. Further, the concentration at 0.25 h in [32] came to 4700 nM. The INH in data set [34] was > 10 µM.

With `CC[C@@H]1CN(C(=O)N[C@H](Cc2ccc(F)cc2)C(=O)N2CCC(C(=O)NC(C)(C)C)(C3CCCCC3)CC2)C[C@@H](CC)N1`, the IC50 in [1] stood at 2.8 µM; in data set [2] it was 0.39 µM; in data set [3], 0.0051 µM; in data set [4], 1.3 µM. In addition, in [5], the EC50 was found to be 0.4 µM. The Activity was 31% in data set [8], 0% in data set [9], 18% in data set [10] and 1% in data set [11]. In [12], the bioavailability came out at 18%. In data set [13], this compound displayed a clearance of 62 mL/min/kg. In [14], the Vd was found to be 8.2 L/kg. Also, the half-life in data set [15] is 1.8 h.
